According to patent publication US9657360B2, “Detection of viral infection” (priority 2011, dated 2017):
Residues, ends and D or L forms follow the SMILES beside them. *: point of attachment. Cbz = O=C(OCc1ccccc1)*

Assays:
Hendra virus = assay type: cell-based

Row | Structure (SMILES) | Hendra virus replication (HeV titres) (Hendra virus) | HeLa cell viability (HeLa cells)
1 | Cc1ccc(S(=O)(=O)/C=C/C#N)cc1 [Bay11-7082] | reduced (not significantly) | not adversely impacting HeLa cell viability
2 | CC(C)C[C@@H](C=O)NC(=O)[C@H](CC(C)C)NC(=O)[C@H](CC(C)C)NC(=O)OCc1ccccc1 [MG-132] (Cbz-Leu-Leu-Leu-aldehyde) | significantly reduced | not adversely impacting HeLa cell viability
